# Data reported in the supplement of paper PMC11061612.
# Legend:
# Assay in all cases: Bliss excess, mean over the matrix (fraction); higher = more synergy
# [1] = test system: 697 (B-Lymphoblastic Leukemia)
# Outline: (§1)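 Bliss excess equals the observed combination effect minus the expected value EA + EB − EA·EB, where EA and EB are the effects of each agent alone. Combination Emax is the second-highest inhibition within the matrix. Inhibition was scaled from CellTiter-Glo 2.0 luminescence, with 0 set by vehicle wells and 1 by blank wells, after 72 hours of two-drug dosing of cells plated in 1536-well plates.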
# [2] = test system: C3A (Hepatocellular Carcinoma)
# Outline: as §1
# [3] = test system: CFPAC-1 (Pancreatic Carcinoma)
# Outline: as §1
# [4] = test system: COR-L95 (Small Cell Lung Carcinoma)
# Outline: as §1
# [5] = test system: DB (B-Cell Non-Hodgkin's Lymphoma)
# Outline: as §1
# [6] = test system: EM-2 (Chronic Myelogenous Leukemia)
# Outline: as §1
# [7] = test system: HPAC (Pancreatic Carcinoma)
# Outline: as §1
# [8] = test system: HT-29 (Colorectal Carcinoma)
# Outline: as §1
# [9] = test system: IHH-4 (Thyroid Gland Carcinoma)
# Outline: as §1
# [10] = test system: J82 (Bladder Carcinoma)
# Outline: as §1
# [11] = test system: KARPAS-620 (Plasma Cell Myeloma)
# Outline: as §1
# [12] = test system: LU-99A (Non-Small Cell Lung Carcinoma)
# Outline: as §1
# [13] = test system: NALM-6 (B-Lymphoblastic Leukemia)
# Outline: as §1
# [14] = test system: NCI-H1299 (Non-Small Cell Lung Carcinoma)
# Outline: as §1
# [15] = test system: OCI-AML2 (Acute Myeloid Leukemia)
# Outline: as §1
# [16] = test system: SN12C (Kidney Carcinoma)
# Outline: as §1
# [17] = test system: SNU-C5 (Colorectal Carcinoma)
# Outline: as §1
# [18] = test system: SW1783 (Low Grade Glioma)
# Outline: as §1
# [19] = test system: SW756 (Cervical Carcinoma)
# Outline: as §1
# [20] = test system: U-266 (Plasma Cell Myeloma)
# Outline: as §1
SMILES,Bliss excess [1],Bliss excess [2],Bliss excess [3],Bliss excess [4],Bliss excess [5],Bliss excess [6],Bliss excess [7],Bliss excess [8],Bliss excess [9],Bliss excess [10],Bliss excess [11],Bliss excess [12],Bliss excess [13],Bliss excess [14],Bliss excess [15],Bliss excess [16],Bliss excess [17],Bliss excess [18],Bliss excess [19],Bliss excess [20]
"Cn1cnc2c(F)c(Nc3ccc(Br)cc3Cl)c(C(=O)NOCCO)cc21 [Selumetinib] + CCN(CCO)CCCOc1ccc2c(Nc3cc(CC(=O)Nc4cccc(F)c4)[nH]n3)ncnc2c1 [AZD2811] (first compound max 10 µM, 7x7, partner max 1 µM)",0.0059,-0.0272,-0.0529,-0.0075,-0.125,-0.0526,0.0816,-0.0042,-0.0209,-0.0611,0.193,-0.0383,0.0318,-0.0205,0.0545,-0.0444,0.038,-0.0559,-0.008,0.0128
"CN(C)CCCOc1ccc(-c2ccc3ncc4c(c3c2)n(C2CCOCC2)c(=O)n4C)cn1 [AZD0156] + CCN(CCO)CCCOc1ccc2c(Nc3cc(CC(=O)Nc4cccc(F)c4)[nH]n3)ncnc2c1 [AZD2811] (first compound max 1 µM, 7x7, partner max 1 µM)",-0.015,-0.0792,-0.0713,-0.0116,-0.0221,-0.0445,0.012,-0.0109,0.0153,0.0201,0.112,-0.0341,-0.0755,-0.021,0.0665,-0.0563,0.0043,-0.0452,-0.016,0.0028
"Cc1nc(Nc2ncc(C(=O)Nc3c(C)cccc3Cl)s2)cc(N2CCN(CCO)CC2)n1 [Dasatinib] + CC(=O)Nc1cccc(-n2c(=O)n(C3CC3)c(=O)c3c(Nc4ccc(I)cc4F)n(C)c(=O)c(C)c32)c1 [Trametinib] (first compound max 2 µM, 7x7, partner max 1 µM)",-0.0461,-0.0059,0.106,-0.0318,-0.0005,-0.0935,0.039,0.0984,0.112,-0.0068,0.0632,-0.0137,0.0217,0.035,0.0363,-0.0254,-0.013,-0.0712,-0.0659,0.0609
"NC1(C(=O)N[C@@H](CCO)c2ccc(Cl)cc2)CCN(c2ncnc3[nH]ccc23)CC1 [Capivasertib] + CC(=O)c1c(C)c2cnc(Nc3ccc(N4CCNCC4)cn3)nc2n(C2CCCC2)c1=O [Palbociclib] (first compound max 10 µM, 7x7, partner max 10 µM)",-0.114,0.0164,-0.0758,-0.0565,0.0453,-0.0552,0.0004,0.0086,0.0815,-0.0134,0.0171,-0.0189,-0.0107,0.0662,0.0134,-0.0265,-0.0112,-0.0263,-0.0499,-0.0606
"CC1(C)CCC(CN2CCN(c3ccc(C(=O)NS(=O)(=O)c4ccc(NCC5CCOCC5)c([N+](=O)[O-])c4)c(Oc4cnc5[nH]ccc5c4)c3)CC2)=C(c2ccc(Cl)cc2)C1 [Venetoclax] + COc1cc(Nc2ncc3c(n2)-c2ccc(Cl)cc2C(c2c(F)cccc2OC)=NC3)ccc1C(=O)O [Alisertib] (first compound max 1 µM, 7x7, partner max 10 µM)",0.0193,-0.0617,-0.0475,0.134,0.124,0.24,-0.0517,0.0016,-0.0216,-0.0336,0.284,-0.0244,0.104,0.0391,0.0826,-0.0985,-0.0682,-0.0178,-0.0426,0.131
"CN(CCO)CC[C@H](CSc1ccccc1)Nc1ccc(S(=O)(=O)NC(=O)c2ccc(N3CCC([C@@H](O)c4ccccc4-c4ccc(Cl)cc4)CC3)cc2)cc1S(=O)(=O)C(F)(F)F [AZD4320] + C[C@@H]1COCCN1C2=NC(=NC(=C2)C3(CC3)[S@](=N)(=O)C)C4=C5C=CNC5=NC=C4 [AZD6738] (first compound max 1 µM, 7x7, partner max 10 µM)",0.013,-0.016,-0.0077,-0.0234,0.0249,0.005,-0.007,-0.0073,-0.0231,-0.0144,-0.0028,-0.0464,0.0379,-0.016,0.0397,-0.0499,-0.0131,-0.106,-0.0658,-0.0133
"COc1nnc2ccc(N3CCC(c4ccc(OCCN5CCN(C)C(=O)[C@H]5C)cc4)CC3)nn12 [AZD5153] + CN(CC[C@H](CSC1=CC=CC=C1)NC2=C(C=C(C=C2)S(=O)(=O)NC(=O)C3=CC=C(C=C3)N4CCC(CC4)[C@H](C5=CC=CC=C5C6=CC=C(C=C6)Cl)O)S(=O)(=O)C(F)(F)F)CCO [AZD4320] (first compound max 1 µM, 7x7, partner max 1 µM)",-0.0709,0.0705,-0.0328,–,–,-0.0442,0.0229,-0.0111,–,0.0292,–,0.128,–,–,–,–,0.0451,–,0.0196,–
"CCc1c2c(nc3ccc(O)cc13)-c1cc3c(c(=O)n1C2)COC(=O)[C@]3(O)CC [SN-38] + O=C(c1cc(Cc2n[nH]c(=O)c3ccccc23)ccc1F)N1CCN(C(=O)C2CC2)CC1 [Olaparib] (first compound max 0.3 µM, 7x7, partner max 10 µM)",0.0877,0.0041,0.0607,0.0044,0.0534,0.0606,-0.0031,0.0396,0.0356,0.0532,-0.0221,0.0452,0.0775,0.129,0.0787,0.0457,–,0.061,-0.0109,0.0526
"CC(=O)c1c(C)c2cnc(Nc3ccc(N4CCNCC4)cn3)nc2n(C2CCCC2)c1=O [Palbociclib] + CN(CC[C@H](CSC1=CC=CC=C1)NC2=C(C=C(C=C2)S(=O)(=O)NC(=O)C3=CC=C(C=C3)N4CCC(CC4)[C@H](C5=CC=CC=C5C6=CC=C(C=C6)Cl)O)S(=O)(=O)C(F)(F)F)CCO [AZD4320] (first compound max 10 µM, 7x7, partner max 1 µM)",-0.0718,-0.0358,0.0056,–,–,-0.0899,-0.0765,-0.0271,–,-0.0667,–,-0.119,–,–,–,–,0.025,–,-0.0883,–
"Cc1c2c(nn1C)CSCc1cc(n(C)n1)CSc1cc(c3ccccc3c1)OCCCc1c(C(=O)O)n(C)c3c-2c(Cl)ccc13 [AZD5991] + C=CCn1c(=O)c2cnc(Nc3ccc(N4CCN(C)CC4)cc3)nc2n1-c1cccc(C(C)(C)O)n1 [AZD1775] (first compound max 1 µM, partner max 1 µM)",-0.0264,0.0084,0.0535,-0.0637,-0.0165,-0.0674,-0.0132,-0.0045,0.02,-0.0372,-0.0032,0.017,-0.0229,-0.0048,-0.0366,0.0306,0.0145,–,-0.013,-0.0008
"C[C@@H](c1ccc2nccn2c1)n1nnc2ncc(-c3cnn(C)c3)nc21 [Savolitinib] + CN(CC[C@H](CSC1=CC=CC=C1)NC2=C(C=C(C=C2)S(=O)(=O)NC(=O)C3=CC=C(C=C3)N4CCC(CC4)[C@H](C5=CC=CC=C5C6=CC=C(C=C6)Cl)O)S(=O)(=O)C(F)(F)F)CCO [AZD4320] (first compound max 1 µM, 7x7, partner max 1 µM)",-0.0412,-0.0604,-0.0545,–,–,-0.0531,-0.0347,-0.0245,–,0.0168,–,-0.0558,–,–,–,–,-0.0448,–,-0.0319,–
"COc1cc2ncnc(Nc3ccc(F)c(Cl)c3)c2cc1OCCCN1CCOCC1 [Gefitinib] + CC(C)n1c(=O)n(C)c2cnc3cc(F)c(-c4ccc(OCCCN5CCCCC5)nc4)cc3c21 [AZD1390] (first compound max 10 µM, 7x7, partner max 0.3 µM)",-0.0787,-0.11,-0.0676,-0.0119,0.0332,-0.0507,-0.0607,-0.0512,-0.043,-0.12,-0.0538,–,-0.0643,-0.0561,-0.041,-0.0255,-0.0751,-0.0571,-0.0551,-0.0442
"C=CCn1c(=O)c2cnc(Nc3ccc(N4CCN(C)CC4)cc3)nc2n1-c1cccc(C(C)(C)O)n1 [AZD1775] + C1CN(CCC1(C(=O)N[C@@H](CCO)C2=CC=C(C=C2)Cl)N)C3=NC=NC4=C3C=CN4 [Capivasertib] (first compound max 3 µM, partner max 3 µM)",0.0337,-0.0262,0.0135,0.0297,-0.0264,-0.0724,-0.0611,-0.0357,-0.005,-0.0184,–,-0.0106,-0.0371,-0.0756,-0.0405,-0.0516,-0.034,-0.0787,-0.0075,-0.0704
